Data taken from article PMC9544108 (Chemmedchem, 2022).
Numbered stars: 1 amine (or outer) side, 2 acyl side, 3 side chain; on linkers, the order of the positions; unused ones are H or OH. Square brackets hold non-standard residues; d marks the D form. Peptide text beside a SMILES is read from it. γGlu = O=C(O)[C@H](CCC(=O)[*:2])N[*:1]; βAsp = O=C(O)[C@H](CC(=O)[*:2])N[*:1]; Cya = N[C@@H](CS(=O)(=O)O)C(=O)O

Columns and labels:
HT-29 cells [1] = settings: HT-29, 0.02-1.0 mM, 23 h, crystal violet, no Pb
Method: We then tested the effect of 8 and 9 alone on cell viability compared with the two benchmark drugs.
96-well plates were prepared such that every well contained 10,000 HT-29 cells in 100 µL
medium, and the cells were allowed to adhere for 24 h.
To all wells but the positive control wells, 10 µL of each solution of the examined peptides (0.24,
and 1.0 mM. To the positive control wells, 10 µL of H 2O were added. Each condition was
performed in triplicates. The plates were incubated at 37 °C, and 5% CO2 for 23 h, after which the
medium was removed, the wells were washed with H2O, and 50 µL of crystal violet solution[10]
(500 mg crystal violet powder in 20 mL CH3OH and 80 mL H2O) were added to each well. The
plates were gently shaken (50 rpm) for 20 min. The plates were then washed with H 2O until no
more unbound dye was observed and allowed to dry overnight. 100 µL of CH3OH were added to
each well, and the plates were gently shaken (50 rpm) for 20 min, after which their absorbance
The toxicity of each concentration of a peptide was calculated according to Equation S5:
𝑇𝑜𝑥𝑖𝑐𝑖𝑡𝑦% = 𝐴[𝑃𝑒𝑝𝑋]−𝐴[𝑏𝑙𝑎𝑛𝑘] × 100% (S5)
A[PepX] – absorbance of well in the presence of X mM of peptide
A[POS] – absorbance of well that contains no peptides

Pb-poisoned HT-29 cells [2] = test: recovery assay of Pb-poisoned cells (crystal violet); assay type: cell-based, human; settings: HT-29, Pb(NO3)2 0.2 mM, further 23 h; for recovery of Pb-poisoned cells, in words: compound 0.02-1 mM added 1 h later; for viability of Pb-poisoned cells relative to the negative control (recovery): peptide added 1 h later, up to 1 mM (5 equiv.), at least 3 independent experiments
Method: Human HT‐29 cells were used to investigate the peptides′ detoxification capabilities.[17, 18, 22] Adhered cells were poisoned with Pb(NO3)2 (200 μM) and 1 h later treated with various concentrations of peptides[28] and of the benchmark drugs, ranging from 20 μM to 1 mM that are equal to 0.1–5 equivalents compared with the Pb(II) concentration. After an incubation of 23 h, the cells were washed and quantified with the crystal violet assay.[22, 29] Each experiment included both positive and negative controls, which were either cells left untreated with both metal ions and peptides or only poisoned with Pb(NO3)2, respectively. Each dataset was then compared to the negative control to report the peptide recovery abilities (Figures 3A–B and S2).
LCMS (ESI) Rt = 0.6 min, observed as [M+H]+
HT-29 cells were chosen as a representative human cell-line due to their high Pb sensitivity and as their medium, RPMI-1640, is compatible with Pb(II), inhibiting metal precipitation.
HT-29 cells were grown in 25 mM HEPES RPMI -1640 medium, supplemented with 1% L- […]
37 °C and 5% CO2. 96-well plates were prepared such that every well contain ed 10,000 cells in […]
concentration 0.2 mM). 10 µL of H2O were added to the positive control wells. 60 min after the […]
(which are 0.1, 0.25, 0.5, 1, 2 and 5 equivalents, respectively). To the positive control wells containing no metal and the negative control wells containing metal but no peptides, 10 µL of H2O were added, respectively. Each condition was performed in triplicates. […]
gently shaken (50 rpm) for 20 min. […]
dye was observed and allowed to dry overnight.
Recovery% = A[PepX]−A[blank] × 100% (S4)
A[blank] – absorbance of an empty well
Each experiment was performed on three independent repeats. Values are mean ± SD. […]
control for the recovery). Values are mean ± SD of at least 3 repeats. […]
and 1.0 mM. […] Each condition was […]

HT-29 cells [3] = test: DCF assay, ROS production; assay type: cell-based, human; settings: HT-29, peptide 1 mM, with or without Pb(II) 0.2 mM
Method: ROS production determination in the presence of Pb(II) ions […]
the cells were allowed to adhere overnight.
To all wells but the positive control wells, 5 µL of 2.2 mM Pb(NO3)2 were added (final concentration 0.2 mM). 5 µL of H2O were added to the positive control wells. 1 h after, 5 µL of 8 […]
control wells containing no metal and the negative control wel ls containing metal but no peptide, […]
removed, the wells were washed with PBS , and 50 µL of PBS were added to each well. 6.75 µL of 2',7'-dichlorodihydrofluorescein diacetate (H 2DCF-DA) (2.1 mM in DMSO) were added (final concentration 0.25 mM) and gently mixed. The plates were incubated for an additional 1 h.
Fluorescence was then measured at an excitation of 490 nm and an emission of 520 nm.
ROS production determination in the absence of Pb(II) ions […]
concentrations of 1 mM. To the positive control well s, 5 µL of H2O were added.
The plates were incu bated at 37 °C, and 5% CO2 for additional 23 h, after which the medium was […]

[4] = Ellman's test, oxidation of thiols to disulfide; assay type: physicochemical; settings: 8 100 µM in H2O with 10% 1 M Tris buffer pH 8.0, RT, DTNB 300 µM, absorbance 412 nm
Method: (§1) To examine this, we used the Ellman's test,[43] where 8 was incubated in H2O, and the Ellman's reagent was added at given time points (Figure S9).[22] While 8 was started to be slightly oxidized within the first 2 h and was steadily forming disulfide bonds, after 24 h, roughly 40 % of the thiols were still reduced, enabling metal coordination within the experimental time frame of our in vitro study.
Calibration curve: to a 96-well plate with freshly-prepared solutions of Ac-Cys-OMe (12.5-200 µM) in H2O supplemented with 10% 1 M Tris buffer pH 8.0, a fresh solution of Ellman’s reagent (5,5'-dithiobis-(2-nitrobenzoic acid; DTNB; final concentration of 300 µM in H2O supplemented with 12.5 mM sodium acetate) was added. The absorbance of each well at 412 nm was then determined. The average and standard deviation within six wells containing the same AA concentration were calculated and linearly plotted using Origin software .
Seven 96-well plates were prepared identically with fresh solutions of 8 (100 µM) in H2O supplemented with 10% 1 M Tris buffer pH 8.0, where each condition is replicated in 3 wells. […] The absorbance of each well at 412 nm was then determined , and the concentration of free thiol per well was calculated according to the cal ibration curve. For each time frame, the average and standard deviation were calculated. […]

Pb-poisoned HT-29 cells [5] = test: ICP-MS Pb content of cells and supernatant (mode of action); assay type: cell-based, human; settings: for SN/C, ratio of Pb content in ppb in supernatants and cells: ICP-MS, three independent experiments
Method: In order to determine the mode of action of 8, by which it enables to achieve a high recovery of Pb‐poisoned HT‐29 cells, inductively coupled plasma mass spectrometry (ICP‐MS) was employed to determine the Pb content of the Pb‐poisoned cells and their respective supernatant. First, HT‐29 cells were poisoned with Pb(NO3)2 (0.2 mM) and the Pb content in the cells and in the medium was determined after 1 and 24 h.[22] The measurement after 1 h was performed to assess the Pb distribution at the time of peptide addition during the recovery experiment and the one after 24 h to reveal the distribution resulting without intervention. At both times, the fraction of intracellular Pb was low and most of the toxic metal was in the medium (Table S10). […] Next, we added 8 to the cells before and after poisoning them with Pb(II) ions to assess whether 8 prevents Pb(II) ions from entering the cells, expels them from the cells or transforms Pb(II) into a non‐toxic complex locally. […] Since treating Pb‐poisoned cells with 8 enables higher viability, despite the fact that their relative intracellular Pb content is elevated, we hypothesize that Pb crosses the cellular membrane from outside as a membrane permeable, non‐toxic Pb(II)‐8 complex.
Cells with Pb(II) ions only were analyzed after 1 or 24 h incubation with the metal salt as reference values:
To all wells, 10 µL of 2.2 mM Pb(NO3)2 were added (final concentration 0.2 mM) and the cells were incubated at 37 °C, and 5% CO2 for 1 h, after which samples were prepared for analysis by […]
Cells treated with 8 were analyzed in two sets that differed in the order of peptide and metal salt […]
After respective incubation times, the supernatants were homogenized by gently pipetting up and down and 50 µL were transferred and digested with 100 µL HNO3 (70%) for 1 h in a 15 mL tube. […] Pb in the supernatant was then quantified using ICP-MS.
Since the cells are adherent, residual supernatant was removed from each well and the cells were washed with RPMI (3x200 µL). […] Pb in the cells was then quantified using ICP-MS. […]

[6] = assay type: in vitro ADME; settings: human blood serum (Sigma Aldrich), 100 µM peptide, 37 °C, aliquots from 0 min up to 48 h, precipitation with CH3CN:H2O 1:1, LCMS
Method: as §1
9 Stability in human blood serum
A freshly prepared solution of 8 (in H2O) was added to the human blood serum (HBS, purchased from Sigma Aldrich) to reach a final peptide concentration of 100 µM and a volume of 1 mL.
Samples were pipetted carefully up and down three times and incubated at 37 °C. Aliquots (50 µL) were taken periodically, starting from the addition of the serum (0 min) and continuing after 1 h up to 48 h. Aliquots were poured into a mixture of CH3CN:H2O (1:1; 200 µL) to precipitate the HBS proteins. The samples were cooled on ice for 30 min and centrifuged at 4’4 00 rpm for 10 min. The supernatant was analyzed by LCMS.
Figure S10. Stability of 8 in human blood serum.

Row | Structure (SMILES) | effect of compound alone on cell viability, in words (HT-29 cells [1]) | recovery of Pb-poisoned cells, in words (Pb-poisoned HT-29 cells [2]) | viability of Pb-poisoned cells relative to the negative control (recovery) (Pb-poisoned HT-29 cells [2]) | other results
1 | O=C(O)CN(CCN(CC(=O)O)CC(=O)O)CC(=O)O [EDTA, ethylenediaminetetraacetic acid, reference compound] | slight toxicity |  |  | 
2 | C[C@@H]1NC(=O)CNC(=O)[C@H](CS)NC(=O)CC[C@@H](C(=O)O)NC(=O)[C@H](C)NC(=O)CNC(=O)[C@H](CS)NC(=O)CC[C@@H](C(=O)O)NC1=O [peptide 2] (cyclo(A[γGlu]CGA[γGlu]CG)) |  | enhanced viability of cells treated with 1 mM of 2 compared with lin2 |  | 
3 | C[C@@H]1NC(=O)CNC(=O)[C@H](CS)NC(=O)C[C@@H](C(=O)O)NC(=O)[C@H](C)NC(=O)CNC(=O)[C@H](CS)NC(=O)C[C@@H](C(=O)O)NC1=O [peptide 5] (cyclo(A[βAsp]CGA[βAsp]CG)) |  | least active one |  | 
4 | NC(=O)C[C@@H]1NC(=O)CNC(=O)[C@H](CS)NC(=O)CC[C@@H](C(=O)O)NC(=O)[C@H](CC(N)=O)NC(=O)CNC(=O)[C@H](CS)NC(=O)CC[C@@H](C(=O)O)NC1=O [peptide 8] (cyclo(CGN[γGlu]CGN[γGlu])) | positively affect cell viability |  | approximately 2.5 times | oxidative stress (ROS) compared with untreated cells, in words (HT-29 cells [3]): decreased the oxidative stress compared to untreated cells; time within which oxidation started [4]: ≤ 2 h; thiols still reduced ([4]; after 24 h, 3 wells): roughly 40%; supernatant-to-cells ratio of Pb compared with cells not treated with peptide, in words (Pb-poisoned HT-29 cells [5]; 8 added pre- or post-poisoning): reduced by approximately half; SN/C, ratio of Pb content in ppb in supernatants and cells (Pb-poisoned HT-29 cells [5]; condition 3: HT-29 poisoned with 0.2 mM Pb(NO3)2 1 h, then 1 mM 8, further 23 h): 56.3 ± 27.5; SN/C, ratio of Pb content in ppb in supernatants and cells (Pb-poisoned HT-29 cells [5]; condition 4: HT-29 given 1 mM 8 for 1 h, then 0.2 mM Pb(NO3)2, further 23 h): 43.3 ± 10.23; time stable in human blood serum [6]: at least 48 h
5 | O=C1CC[C@@H](C(=O)O)NC(=O)[C@H](CS(=O)(=O)O)NC(=O)CNC(=O)[C@H](CS)NC(=O)CC[C@@H](C(=O)O)NC(=O)[C@H](CS(=O)(=O)O)NC(=O)CNC(=O)[C@H](CS)N1 [peptide 9] (cyclo(CG[Cya][γGlu]CG[Cya][γGlu])) | no toxicity at all |  | approximately 2.5 times | 
